Assay results published in US10023543B2 (CELGENE QUANTICEL RESEARCH, INC., priority 2014, dated 2018).

The compounds below were run on THP-1 (AML) cells (assay: LSD1 CD11b cellular assay (flow cytometry)). Conditions: Homo sapiens, THP-1, 96 h, read-out: THP-1 IC50 (μM).
Assay type: cell-based

SMILES | IC50 [µM]
COc1ccc(-c2c(-c3ccc(C#N)cc3)nc(N3CCC(N)CC3)n(C)c2=O)cc1 [Example 2, 4-[2-(4-amino-piperidin-1-yl)-5-(4-methoxy-phenyl)-1-methyl-6-oxo-1,6-dihydro-pyrimidin-4-yl]-benzonitrile] | < 0.1

Same assay, conditions: Homo sapiens, THP-1, 96 h; CD11b expressing cells, 4 days; read-out: THP-1 IC50

IC50 [µM] | SMILES
0.1 to 1 | COc1ccc(-c2c(-c3ccc(C#N)cc3)nc(NC[C@H]3CCNC3)n(C)c2=O)cc1F [Example 44, 4-{5-(3-fluoro-4-methoxy-phenyl)-1-methyl-6-oxo-2-[(3S)-(pyrrolidin-3-ylmethyl)-amino]-1,6-dihydro-pyrimidin-4-yl}-benzonitrile]
< 0.1 | CN(C)c1ccc(-c2c(-c3ccc(C#N)c(F)c3)nc(N3CCCNCC3)n(C)c2=O)cn1 [Example 63, 4-[2-[1,4]diazepan-1-yl-5-(6-dimethylamino-pyridin-3-yl)-1-methyl-6-oxo-1,6-dihydro-pyrimidin-4-yl]-2-fluoro-benzonitrile]
< 0.1 | Cn1c(N2CCC(N)CC2)nc(-c2ccc(C#N)c(F)c2)c(-c2ccc3cn[nH]c3c2)c1=O [Example 77, 4-[2-(4-amino-piperidin-1-yl)-5-(1H-indazol-6-yl)-1-methyl-6-oxo-1,6-dihydro-pyrimidin-4-yl]-2-fluoro-benzonitrile]
< 0.1 | Cn1c(N2CCC(N)CC2)nc(-c2ccc(C#N)c(F)c2)c(-c2ccc3ccn(C)c3c2)c1=O [Example 76, 4-[2-(4-amino-piperidin-1-yl)-1-methyl-5-(1-methyl-1H-indol-6-yl)-6-oxo-1,6-dihydro-pyrimidin-4-yl]-2-fluoro-benzonitrile]
< 0.1 | CNC1CCN(c2nc(-c3ccc(C#N)c(F)c3)c(-c3ccc(N(C)C)nc3)c(=O)n2C)CC1 [Example 83, 4-[5-(6-dimethylamino-pyridin-3-yl)-1-methyl-2-(4-methylamino-piperidin-1-yl)-6-oxo-1,6-dihydro-pyrimidin-4-yl]-2-fluoro-benzonitrile]
0.1 to 1 | COc1ccc(-c2c(-c3ccc(C#N)c(F)c3)nc(N3CC(CN)C3)n(C)c2=O)cc1 [Example 69, 4-[2-(3-aminomethyl-azetidin-1-yl)-5-(4-methoxy-phenyl)-1-methyl-6-oxo-1,6-dihydro-pyrimidin-4-yl]-2-fluoro-benzonitrile]
0.1 to 1 | Cn1c(N2CCC(N)CC2)nc(-c2ccc(C#N)cc2)c(-c2ccc(C(N)=O)c(F)c2)c1=O [Example 41, 4-[2-(4-aminopiperidyl)-6-(4-cyanophenyl)-3-methyl-4-oxo(3-hydropyrimidin-5-yl)]-2-fluorobenzamide]
< 0.1 | Cn1c(N2CCC(N)CC2)nc(-c2ccc(C#N)c(F)c2)c(-c2ccc(N)cc2)c1=O [Example 89, 4-[5-(4-aminophenyl)-2-(4-aminopiperidin-1-yl)-1-methyl-6-oxopyrimidin-4-yl]-2-fluorobenzonitrile]
0.1 to 1 | CN(C)c1ncc(-c2c(-c3ccc(C#N)c(F)c3)nc(N3CCC(N(C)C)CC3)n(C)c2=O)cn1 [Example 81, 4-[2′-dimethylamino-2-(4-dimethylamino-piperidin-1-yl)-1-methyl-6-oxo-1,6-dihydro-[5,5′]bipyrimidinyl-4-yl]-2-fluoro-benzonitrile]
0.1 to 1 | CNC(=O)c1ccc(-c2c(-c3ccc(C#N)cc3)nc(N3CCC(N)CC3)n(C)c2=O)cc1F [Example 40, {4-[2-(4-aminopiperidyl)-6-(4-cyanophenyl)-3-methyl-4-oxo(3-hydropyrimidin-5-yl)]-2-fluorophenyl}-N-methylcarboxamide]
0.1 to 1 | Cn1c(N2CCC(N)CC2)nc(-c2ccc(C#N)c(F)c2)c(-c2ccc3c(c2)CNC3=O)c1=O [Example 42, 4-[2-(4-amino-piperidin-1-yl)-1-methyl-6-oxo-5-(1-oxo-2,3-dihydro-1H-isoindol-5-yl)-1,6-dihydro-pyrimidin-4-yl]-2-fluoro-benzonitrile]
< 0.1 | COc1ccc(-c2c(-c3ccc(C#N)c(F)c3)nc(N3CCC(C)(N)CC3)n(C)c2=O)cc1F [Example 32, 4-[2-(4-amino-4-methyl-piperidin-1-yl)-5-(3-fluoro-4-methoxy-phenyl)-1-methyl-6-oxo-1,6-dihydro-pyrimidin-4-yl]-2-fluoro-benzonitrile]

Further lines, the compound ahead of its results:

SMILES | IC50 [µM]
Cn1c(N2CCC(N)CC2)nc(-c2ccc(C#N)c(F)c2)c(-c2ccc(S(C)(=O)=O)cc2)c1=O [Example 105, 4-[2-(4-aminopiperidin-1-yl)-1-methyl-5-(4-methylsulfonylphenyl)-6-oxopyrimidin-4-yl]-2-fluorobenzonitrile] | < 0.1
CCOc1ncc(-c2c(-c3ccc(C#N)c(F)c3)nc(N3CCC(N)CC3)n(C)c2=O)cc1F [Example 93, 4-[2-(4-aminopiperidin-1-yl)-5-(6-ethoxy-5-fluoropyridin-3-yl)-1-methyl-6-oxopyrimidin-4-yl]-2-fluorobenzonitrile] | < 0.1
CNc1ccc(-c2c(-c3ccc(C#N)c(F)c3)nc(N3CCC(N)CC3)n(C)c2=O)cc1 [Example 90, 4-[2-(4-aminopiperidin-1-yl)-1-methyl-5-[4-(methylamino)phenyl]-6-oxopyrimidin-4-yl]-2-fluorobenzonitrile] | < 0.1
Cn1c(N2CCC(N)CC2)nc(-c2ccc(C#N)c(F)c2)c(-c2ccc(F)cc2)c1=O [Example 101, 4-[2-(4-aminopiperidin-1-yl)-5-(4-fluorophenyl)-1-methyl-6-oxopyrimidin-4-yl]-2-fluorobenzonitrile] | < 0.1
Cn1c(N2CCC(N)CC2)nc(-c2ccc(C#N)c(F)c2)c(-c2ccc3occc3c2)c1=O [Example 18, 4-[2-(4-amino-piperidin-1-yl)-5-benzofuran-5-yl-1-methyl-6-oxo-1,6-dihydro-pyrimidin-4-yl]-2-fluoro-benzonitrile] | < 0.1
Cn1c(N2CCC(N)CC2)nc(-c2ccc(C#N)cc2)c(-c2ccc(OCCO)cc2)c1=O [Example 97, 4-[2-(4-aminopiperidin-1-yl)-5-[4-(2-hydroxyethoxy)phenyl]-1-methyl-6-oxopyrimidin-4-yl]benzonitrile] | < 0.1
COc1ccc(-c2c(-c3ccc(C#N)c(F)c3)nc(N3CC[C@@H](N)C3)n(C)c2=O)cc1F [Example 27, 4-[2-((3R)-3-aminopyrrolidinyl)-5-(3-fluoro-4-methoxyphenyl)-1-methyl-6-oxohydropyrimidin-4-yl]-2-fluorobenzenecarbonitrile] | < 0.1
CNc1ccc(-c2c(-c3ccc(C#N)c(F)c3)nc(N3CCC(N)CC3)n(C)c2=O)cc1F [Example 91, 4-[2-(4-aminopiperidin-1-yl)-5-[3-fluoro-4-(methylamino)phenyl]-1-methyl-6-oxopyrimidin-4-yl]-2-fluorobenzonitrile] | < 0.1
COCc1ccc(-c2c(-c3ccc(C#N)c(F)c3)nc(N3CCC(N)CC3)n(C)c2=O)cc1 [Example 107, 4-[2-(4-aminopiperidin-1-yl)-5-[4-(methoxymethyl)phenyl]-1-methyl-6-oxopyrimidin-4-yl]-2-fluorobenzonitrile] | < 0.1
COc1ccc(-c2c(-c3ccc(C#N)c(F)c3)nc(N3CCC[C@@H](N)C3)n(C)c2=O)cc1 [Example 30, 4-[2-((3R)-3-aminopiperidyl)-5-(4-methoxyphenyl)-1-methyl-6-oxohydro-pyrimidin-4-yl]-2-fluorobenzenecarbonitrile] | < 0.1
COc1ccc(-c2c(-c3ccc(C#N)c(F)c3)nc(NC[C@@H]3CCNC3)n(C)c2=O)cc1 [Example 52, 2-luoro-4-{5-(4-methoxy-phenyl)-1-methyl-6-oxo-2-[(3R)-(pyrrolidin-3-ylmethyl)-amino]-1,6-dihydro-pyrimidin-4-yl}-benzonitrile] | 0.1 to 1
CNC1CCN(c2nc(-c3ccc(C#N)c(F)c3)c(-c3ccc4c(cnn4C)c3)c(=O)n2C)CC1 [Example 87, 2-fluoro-4-[1-methyl-2-[4-(methylamino)piperidin-1-yl]-5-(1-methylindazol-5-yl)-6-oxopyrimidin-4-yl]benzonitrile] | < 0.1
COCCOc1ccc(-c2c(-c3ccc(C#N)c(F)c3)nc(N3CCC(N)CC3)n(C)c2=O)cc1 [Example 98, 4-[2-(4-aminopiperidin-1-yl)-5-[4-(2-methoxyethoxy)phenyl]-1-methyl-6-oxopyrimidin-4-yl]-2-fluorobenzonitrile] | < 0.1
Cn1cc2cc(-c3c(-c4ccc(C#N)c(F)c4)nc(N4CCC(N)CC4)n(C)c3=O)ccc2n1 [Example 37, 4-[2-(4-aminopiperidyl)-1-methyl-5-(2-methyl(2H-indazol-5-yl))-6-oxohydropyrimidin-4-yl]-2-fruorobenzenecarbonitrile] | < 0.1
COc1ccc(-c2c(-c3ccc(C#N)c(F)c3)nc(N3CCC(N)CC3)n(CC(=O)O)c2=O)cc1 [Example 15, [2-(4-amino-piperidin-1-yl)-4-(4-cyano-3-fluoro-phenyl)-5-(4-methoxy-phenyl)-6-oxo-6H-pyrimidin-1-yl]-acetic acid] | 1 to 10
CN(C)c1ncc(-c2c(-c3ccc(C#N)c(F)c3)nc(N3CCC(N)CC3)n(C)c2=O)cn1 [Example 49, 4-[2-(4-amino-piperidin-1-yl)-2′-dimethylamino-1-methyl-6-oxo-1,6-dihydro-[5,5′]bipyrimidinyl-4-yl]-2-fluoro-benzonitrile] | < 0.1
COc1ccc(-c2c(-c3ccc(C#N)c(F)c3)nc(NC[C@H]3CCNC3)n(C)c2=O)cc1 [Example 51, 2-fluoro-4-{5-(4-methoxy-phenyl)-1-methyl-6-oxo-2-[(3S)-(pyrrolidin-3-ylmethyl)-amino]-1,6-dihydro-pyrimidin-4-yl}-benzonitrile] | 0.1 to 1
Cn1c(N2CCC(N)CC2)nc(-c2ccc(C#N)c(F)c2)c(-c2ccc(CCO)cc2)c1=O [Example 99, 4-[2-(4-aminopiperidin-1-yl)-5-[4-(2-hydroxyethyl)phenyl]-1-methyl-6-oxopyrimidin-4-yl]-2-fluorobenzonitrile] | < 0.1
COc1ccc(-c2c(-c3ccc(C#N)c(F)c3)nc(N3CCC4(CCNC4)CC3)n(C)c2=O)cc1F [Example 22, 4-[2-(2,8-diaza-spiro[4.5]dec-8-yl)-5-(3-fluoro-4-methoxy-phenyl)-1-methyl-6-oxo-1,6-dihydro-pyrimidin-4-yl]-2-fluoro-benzonitrile] | < 0.1
